Source: patent US10222368B2 (priority 2012, dated 2019)

Legend:
α7nAChR-FLNA association = target: T1, α7nAChR-FLNA association (Rattus norvegicus, UniProt A0A8I5ZV49); assay: Rat frontal cortical synaptosomes treated with Aβ42, anti-FLNA immunoprecipitation / Western blot; format: cell-based
T1 construct: from tissue; host or cells: rat frontal cortical synaptosomes
Excerpt: The α7nAChR-FLNA complexes in the solubilized synaptosomes were immunoprecipitated with immobilized anti-FLNA and the α7nAChR and FLNA levels in the anti-FLNA immunoprecipitates determined by Western blotting (FIG. 14A) and quantified by densitometry for illustrative compounds (FIG. 14B). n=3. […] The letter designation “M” that accompanies many of the “C-series” compounds is omitted from FIG. 14, the remaining figures and most discussions of the figures and compounds hereinafter for ease in expression. Structural formulas of the compounds used in this and the other figures are provided hereinafter.
(§1) The complexes in the solubilized synaptosomes, and α7nAChR, TLR4 and FLNA levels in the anti-FLNA immunoprecipitates were determined by Western blotting (FIG. 15A) in which numerals outside of and to the left of the blots are as discussed before. Amounts present in the blots were quantified by densitometry (FIG. 15B). […] Structural formulas of the compounds used in this and the other figures are provided hereinafter.

KAPPA opioid receptor = KAPPA opioid receptor (Homo sapiens, UniProt P41145); conditions: cited from earlier work
mu opiate receptor (MOR) = target: T2, mu opiate receptor (MOR) (Rattus norvegicus, UniProt P33535); assay: MOR agonist activity using [35S]GTPγS binding assay in striatal membranes; format: biochemical; conditions: for MOR agonist activity, [35S]GTPγS binding, FLNA-binding compound as agonist at 0.1 μM: 0.1 μM compound; for MOR agonist activity, [35S]GTPγS binding, FLNA-binding compound as agonist at 0.1 μM / MOR agonist activity, [35S]GTPγS binding, 1 μM + BFNA / MOR agonist activity, [35S]GTPγS binding, FLNA-binding compound as agonist at 1 μM: striatal membranes; for MOR agonist activity, [35S]GTPγS binding, FLNA-binding compound as agonist at 0.1 μM / MOR agonist activity, [35S]GTPγS binding, FLNA-binding compound as agonist at 1 μM: Series C-2; for MOR agonist activity, [35S]GTPγS binding, 1 μM + BFNA: 1 μM compound + 1 μM β-FNA (MOR antagonist); for MOR agonist activity, [35S]GTPγS binding, FLNA-binding compound as agonist at 1 μM: 1 μM compound; for MOR agonist activity ([35S]GTPγS binding to Gαo), preliminary study: average of two runs
T2 construct: from tissue; host or cells: striatal tissue (membrane preparation)
Description: To assess the mu opiate receptor (MOR) agonist activity of positive compounds from the FLNA screening, compounds were tested in a [^35S]GTPγS binding assay using striatal membranes. […] This assay measures a functional consequence of receptor occupancy at one of the earliest receptor-mediated events. The assay permits for traditional pharmacological parameters of potency, efficacy and antagonist affinity, with the advantage that agonist measures are not subjected to amplification or other modulation that may occur when analyzing parameters further downstream of the receptor.
Thus, striatal tissue was homogenized in 10 volumes of ice cold 25 mM HEPES buffer, pH 7.4, which contained 1 mM EGTA, 100 mM sucrose, 50 μg/ml leupeptin, 0.04 mM PMSF, 2 μg/ml soybean trypsin inhibitor and 0.2% 2-mercaptoethanol. The homogenates were centrifuged at 800×g for 5 minutes and the supernatants were centrifuged at 49,000×g for 20 minutes.
The resultant striatal membrane preparation (200 μg) was admixed and maintained (incubated) at 30° C. for 5 minutes in reaction buffer as above that additionally contained 1 mM MgCl2 and 0.5 nM [^35S]GTPγS (0.1 μCi/assay, PerkinElmer Life and Analytical Sciences) in a total volume of 250 μl and continued for 5 minutes in the absence or presence of 0.1-10 μM of an assayed compound of interest. The reaction was terminated by dilution with 750 μl of ice-cold reaction buffer that contained 20 mM MgCl2 and 1 mM EGTA and immediate centrifugation at 16,000×g for 5 minutes.
Normal rabbit serum (1 μl) was added to 1 ml of lysate and incubated at 25° C. for 30 minutes. Nonspecific immune complexes were removed by incubation with 25 μl of protein A/G-conjugated agarose beads at 25° C. for 30 minutes followed by centrifugation at 5,000×g at 4° C. for 5 minutes. The supernatant was divided and separately incubated at 25° C. for 30 minutes with antibodies raised against Gαo proteins (1:1,000 dilutions).
The immunocomplexes so formed were collected by incubation at 25° C. for 30 minutes with 40 μl of agarose-conjugated protein A/G beads and centrifugation at 5,000×g at 4° C. for 5 minutes. The pellet was washed and suspended in buffer containing 50 mM Tris-HCl, pH 8.0, and 1% NP-40. The radioactivity in the suspension was determined by liquid scintillation spectrometry.

[1] = target: FLNA pentapeptide VAKGL (SEQ ID NO: 1) (Homo sapiens, UniProt P21333); assay: FITC-NLX-based FLNA screening assay; format: binding; conditions: for inhibition at 0.0001 µM: 0.1 nM compound; for inhibition at 0.0001 µM / inhibition at 0.001 µM / inhibition at 0.01 µM / inhibition at 0.1 µM / inhibition at 1 µM: 100 nM frozen-stored FITC-NLX, average of two runs, read-out: Percent inhibition of FITC-NLX binding, preliminary study; for inhibition at 0.001 µM: 1 nM compound; for inhibition at 0.01 µM: 10 nM compound; for inhibition at 0.1 µM: 100 nM compound; for inhibition at 1 µM: 1 μM compound
TLR4/FLNA = target: T3, TLR4/FLNA (Rattus norvegicus, UniProt A0A8I5ZV49); assay: Rat frontal cortical synaptosomes treated with Aβ42, anti-FLNA immunoprecipitation / Western blot; format: cell-based; conditions: 1 or 10 nM compound, simultaneously or 10 min prior to 0.1 μM Aβ42; Dunnett's test
T3 construct: from tissue; host or cells: rat frontal cortical synaptosomes
Description: as §1

[2] = target: T4, human FLNA-α7nAChR complex (Homo sapiens, UniProt P21333); assay: Supplemental ELISA for FLNA-α7nAChR complex (Example 8: specificity, accuracy, precision, linearity, detection limit)
T4 construct: To determine the levels of FLNA-α7nAChR, FLNA-TLR4 and α7nAChR-Aβ42 complexes in the lymphocytes; endogenous in cells; host or cells: lymphocytes from venous blood of AD patients and control subjects (ex vivo)
Description: The following ELISA method activities were carried out to quantify FLNA-α7nAChR complex: specificity; accuracy; precision/repeatability; linearity and range; and, detection limit.
To assure ELISA assay uniquely identifies human FLNA-α7nAChR complex, the cross reactivity to human FLNA-α7nAChR complex, unrelated human proteins human leptin and human chorionic gonadotropin (hLeptin and hCG) were added to the lymphocyte lysate preparations and the ELISA assay performed.
To assure the ELISA assay returns a value that is representative of the “true” value, a range of concentrations of recombinant human leptin was spiked into lysate sample with FLNA-α7nAChR complex. Recovery percent concentrations were measured and accuracy calculated.
To assure that three measurements of a single lysate sample (e.g., sample AD#63) made in the same assay provide the same result, three samples were measured using the ELISA assay, three times on the same day using the same methods (repeatability). Within-day RSD was calculated.
To assure that the response is linear over the range of expected sample values, OD 450 of different concentrations of human FLNA-α7nAChR complex were detected using the ELISA assay. […]

[3] = 0.1 or 1 nM compound, simultaneously with or 10 min prior to Aβ42

T2 sequence (P33535 whole entry): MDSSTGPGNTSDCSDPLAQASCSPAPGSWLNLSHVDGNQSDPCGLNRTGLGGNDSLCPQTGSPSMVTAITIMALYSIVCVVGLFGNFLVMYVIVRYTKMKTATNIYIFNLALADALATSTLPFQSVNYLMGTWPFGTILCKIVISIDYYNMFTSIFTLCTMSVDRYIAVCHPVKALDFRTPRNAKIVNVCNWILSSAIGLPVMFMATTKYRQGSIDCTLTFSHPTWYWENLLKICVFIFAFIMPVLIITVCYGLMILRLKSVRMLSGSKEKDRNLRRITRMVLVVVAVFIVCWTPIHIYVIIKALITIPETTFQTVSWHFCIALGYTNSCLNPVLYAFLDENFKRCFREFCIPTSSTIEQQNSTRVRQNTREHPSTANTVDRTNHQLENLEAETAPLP
T1 sequence (A0A8I5ZV49 1-2647): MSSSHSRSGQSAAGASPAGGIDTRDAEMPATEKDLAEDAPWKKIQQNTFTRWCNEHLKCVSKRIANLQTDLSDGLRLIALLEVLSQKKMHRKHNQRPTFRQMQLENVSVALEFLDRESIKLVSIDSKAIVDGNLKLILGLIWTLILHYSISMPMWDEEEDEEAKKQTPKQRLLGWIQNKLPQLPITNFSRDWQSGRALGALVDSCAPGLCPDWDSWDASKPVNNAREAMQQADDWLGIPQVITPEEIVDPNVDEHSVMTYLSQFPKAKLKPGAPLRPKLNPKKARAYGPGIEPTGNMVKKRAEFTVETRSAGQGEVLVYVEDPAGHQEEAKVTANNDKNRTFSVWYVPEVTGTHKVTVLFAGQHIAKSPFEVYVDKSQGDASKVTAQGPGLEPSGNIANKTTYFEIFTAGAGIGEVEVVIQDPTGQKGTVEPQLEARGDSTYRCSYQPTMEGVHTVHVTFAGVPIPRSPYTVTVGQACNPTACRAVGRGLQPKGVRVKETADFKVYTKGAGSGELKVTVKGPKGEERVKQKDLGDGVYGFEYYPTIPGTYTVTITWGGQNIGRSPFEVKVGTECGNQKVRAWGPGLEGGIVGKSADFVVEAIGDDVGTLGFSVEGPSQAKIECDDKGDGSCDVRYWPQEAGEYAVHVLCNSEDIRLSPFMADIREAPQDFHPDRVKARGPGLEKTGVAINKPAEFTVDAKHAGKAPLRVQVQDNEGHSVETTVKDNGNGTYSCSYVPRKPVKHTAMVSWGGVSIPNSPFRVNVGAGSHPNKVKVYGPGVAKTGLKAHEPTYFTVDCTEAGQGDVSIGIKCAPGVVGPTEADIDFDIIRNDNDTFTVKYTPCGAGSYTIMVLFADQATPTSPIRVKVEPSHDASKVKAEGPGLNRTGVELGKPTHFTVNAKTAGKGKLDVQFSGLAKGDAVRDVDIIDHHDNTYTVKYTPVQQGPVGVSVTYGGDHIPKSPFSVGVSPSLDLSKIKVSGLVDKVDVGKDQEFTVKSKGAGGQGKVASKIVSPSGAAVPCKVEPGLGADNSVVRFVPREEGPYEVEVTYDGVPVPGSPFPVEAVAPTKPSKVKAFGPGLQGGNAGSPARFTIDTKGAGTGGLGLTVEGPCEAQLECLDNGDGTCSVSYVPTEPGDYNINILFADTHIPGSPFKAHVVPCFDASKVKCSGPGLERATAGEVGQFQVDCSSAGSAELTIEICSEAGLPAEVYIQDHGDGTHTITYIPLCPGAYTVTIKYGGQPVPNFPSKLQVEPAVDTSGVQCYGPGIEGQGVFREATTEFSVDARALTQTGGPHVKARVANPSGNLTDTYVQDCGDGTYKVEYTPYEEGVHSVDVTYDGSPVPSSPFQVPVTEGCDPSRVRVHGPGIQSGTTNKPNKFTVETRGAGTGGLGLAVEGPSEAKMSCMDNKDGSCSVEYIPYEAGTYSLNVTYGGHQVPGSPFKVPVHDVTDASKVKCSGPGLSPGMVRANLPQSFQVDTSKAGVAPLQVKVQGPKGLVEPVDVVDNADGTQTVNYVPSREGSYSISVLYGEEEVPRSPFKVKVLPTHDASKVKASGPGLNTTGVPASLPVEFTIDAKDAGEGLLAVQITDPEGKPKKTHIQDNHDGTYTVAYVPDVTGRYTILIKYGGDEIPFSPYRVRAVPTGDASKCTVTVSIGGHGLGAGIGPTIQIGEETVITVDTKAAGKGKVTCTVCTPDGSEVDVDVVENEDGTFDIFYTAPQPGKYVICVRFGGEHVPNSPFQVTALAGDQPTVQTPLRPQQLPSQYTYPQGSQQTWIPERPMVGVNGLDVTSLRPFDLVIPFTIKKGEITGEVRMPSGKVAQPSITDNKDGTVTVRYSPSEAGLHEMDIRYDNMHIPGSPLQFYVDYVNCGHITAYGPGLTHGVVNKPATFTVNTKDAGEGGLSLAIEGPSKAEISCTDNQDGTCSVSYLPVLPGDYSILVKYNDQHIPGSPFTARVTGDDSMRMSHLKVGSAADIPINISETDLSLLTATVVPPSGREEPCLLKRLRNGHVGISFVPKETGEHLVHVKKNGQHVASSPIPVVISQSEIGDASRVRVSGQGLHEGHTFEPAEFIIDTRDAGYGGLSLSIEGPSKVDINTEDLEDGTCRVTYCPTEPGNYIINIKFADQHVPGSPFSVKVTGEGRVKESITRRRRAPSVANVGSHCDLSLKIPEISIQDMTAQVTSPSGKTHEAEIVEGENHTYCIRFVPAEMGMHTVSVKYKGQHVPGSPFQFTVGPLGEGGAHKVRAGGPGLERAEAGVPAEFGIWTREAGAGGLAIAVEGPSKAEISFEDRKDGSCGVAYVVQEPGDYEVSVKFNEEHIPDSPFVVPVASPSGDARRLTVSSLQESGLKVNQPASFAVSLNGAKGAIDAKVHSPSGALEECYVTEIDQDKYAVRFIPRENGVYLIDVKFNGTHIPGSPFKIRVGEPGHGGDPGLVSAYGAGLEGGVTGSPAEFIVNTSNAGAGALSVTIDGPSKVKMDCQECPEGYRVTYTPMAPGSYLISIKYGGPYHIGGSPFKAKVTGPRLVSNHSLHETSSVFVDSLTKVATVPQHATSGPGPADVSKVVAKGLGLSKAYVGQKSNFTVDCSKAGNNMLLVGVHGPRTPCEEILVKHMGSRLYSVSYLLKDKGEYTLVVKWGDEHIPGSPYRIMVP
T3 sequence (A0A8I5ZV49 1-2647): as above
Sequence of KAPPA opioid receptor (P41145 whole entry): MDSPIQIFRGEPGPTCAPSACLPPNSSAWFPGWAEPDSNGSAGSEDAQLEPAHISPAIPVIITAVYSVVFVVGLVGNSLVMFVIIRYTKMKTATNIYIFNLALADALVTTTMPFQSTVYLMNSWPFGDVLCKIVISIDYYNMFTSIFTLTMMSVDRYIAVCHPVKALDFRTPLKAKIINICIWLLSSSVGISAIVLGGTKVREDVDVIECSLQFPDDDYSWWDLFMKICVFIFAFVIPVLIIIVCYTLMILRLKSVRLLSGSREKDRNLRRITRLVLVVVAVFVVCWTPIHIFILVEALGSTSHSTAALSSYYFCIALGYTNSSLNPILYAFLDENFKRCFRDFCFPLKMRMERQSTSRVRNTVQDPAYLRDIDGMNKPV

Compound: COc1ccc(OCC(O)CN2CCc3ccccc3C2)cc1 (centres unmarked) [Compound A0053]
- Effect on Aβ42-induced α7nAChR-FLNA association (in words) (α7nAChR-FLNA association; [3]): reduce α7nAChR-FLNA association

Compound: CC1CCC(C(C)C)C(OCC(O)CN2CCc3ccccc3C2)C1 (centres unmarked) [Compound A0040]
- Effect on Aβ42-induced α7nAChR-FLNA association (in words) (α7nAChR-FLNA association; [3]): reduce α7nAChR-FLNA association

Compound: Oc1ccc2c3c1O[C@H]1c4[nH]c5c(c4C[C@@]4(O)C(C2)N(CC2CC2)CC[C@]314)C[C@@]1(O)[C@H]2Cc3ccc(O)c4c3[C@@]1(CCN2CC1CC1)[C@H]5O4 [Binaltrophimine]
- Opioid receptor activity and relative potency, KAPPA (KAPPA opioid receptor): − −

Compound: O=C1CNC2(CCNCC2)N1Cc1ccccc1 [Compound C0114M]
- Effect on Aβ42-induced α7nAChR-FLNA association (in words) (α7nAChR-FLNA association; [3]): reduce α7nAChR-FLNA association
- MOR agonist activity, [35S]GTPγS binding, FLNA-binding compound as agonist at 0.1 μM (mu opiate receptor (MOR)): 114.0%
- MOR agonist activity, [35S]GTPγS binding, 1 μM + BFNA (mu opiate receptor (MOR)): 35.9%
- MOR agonist activity, [35S]GTPγS binding, FLNA-binding compound as agonist at 1 μM (mu opiate receptor (MOR)): 144.3%

Compound: CN1CCC2(CC1)NCC(=O)N2Cc1ccccc1 [Compound C0105M]
- Effect on Aβ42-induced α7nAChR-FLNA association (in words) (α7nAChR-FLNA association; [3]): reduce α7nAChR-FLNA association
- MOR agonist activity, [35S]GTPγS binding, FLNA-binding compound as agonist at 0.1 μM (mu opiate receptor (MOR)): 198.1%
- MOR agonist activity, [35S]GTPγS binding, 1 μM + BFNA (mu opiate receptor (MOR)): 73.1%
- MOR agonist activity, [35S]GTPγS binding, FLNA-binding compound as agonist at 1 μM (mu opiate receptor (MOR)): 220.3%

Compound: C=CCN1CCC2(CC1)OCCN2S(=O)(=O)c1ccc(C)cc1 [Compound 10]
- inhibition at 0.0001 µM [1]: 27.5%
- inhibition at 0.001 µM [1]: 27.3%
- inhibition at 0.01 µM [1]: 26.6%
- inhibition at 0.1 µM [1]: 27.3%
- inhibition at 1 µM [1]: 34.5%
- MOR agonist activity ([35S]GTPγS binding to Gαo), preliminary study (mu opiate receptor (MOR); 0.1 μM compound as agonist): 163.1%
- MOR agonist activity ([35S]GTPγS binding to Gαo), preliminary study (mu opiate receptor (MOR); 1 μM + βNFA): 60.4%
- MOR agonist activity ([35S]GTPγS binding to Gαo), preliminary study (mu opiate receptor (MOR); 1 μM compound as agonist): 191.8%

Compound: O=S(=O)(c1ccc(OC(F)(F)F)cc1)N1CCOC12CCN(CC1CC1)CC2 [Compound 4]
- inhibition at 0.0001 µM [1]: 18.8%
- inhibition at 0.001 µM [1]: 21.3%
- inhibition at 0.01 µM [1]: 17.9%
- inhibition at 0.1 µM [1]: 28.8%
- inhibition at 1 µM [1]: 42.9%
- MOR agonist activity ([35S]GTPγS binding to Gαo), preliminary study (mu opiate receptor (MOR); 0.1 μM compound as agonist): 133.9%
- MOR agonist activity ([35S]GTPγS binding to Gαo), preliminary study (mu opiate receptor (MOR); 1 μM + βNFA): 49.5%
- MOR agonist activity ([35S]GTPγS binding to Gαo), preliminary study (mu opiate receptor (MOR); 1 μM compound as agonist): 165.2%

Compound: CC1CCC(C(C)C)C(OCC(O)CN2CCCc3ccccc32)C1 (centres unmarked) [Compound A0068]
- Effect on Aβ42-induced α7nAChR-FLNA association (in words) (α7nAChR-FLNA association; [3]): reduce α7nAChR-FLNA association

Compound: C=CCN1CC[C@]23c4c5ccc(O)c4O[C@H]2C(=O)CC[C@]3(O)[C@H]1C5 [(+) NLX, (+)naloxone, reference compound]
- Effect on Aβ42-induced α7nAChR-FLNA association (in words) (α7nAChR-FLNA association; [3]): reduce α7nAChR-FLNA association

Compound: Nalorphine [reference compound]
- Binding to the FLNA pentapeptide of SEQ ID NO: 1 (in words) [1]: bind well

Compound: Nalbuphine [reference compound]
- Binding to the FLNA pentapeptide of SEQ ID NO: 1 (in words) [1]: bind well

Compound: CC1CCC(C(C)C)C(OCC(CN2CC(C)OC(C)C2)NCc2ccccc2)C1 (centres unmarked) [Compound A0033]
- Effect on Aβ42-induced α7nAChR-FLNA association (in words) (α7nAChR-FLNA association; [3]): reduce α7nAChR-FLNA association

Compound: O=C1CNC2(CCN(CC3CC3)CC2)N1Cc1ccccc1 [Compound C0124M]
- Effect on Aβ42-induced α7nAChR-FLNA association (in words) (α7nAChR-FLNA association; 1 or 10 nM compound, simultaneously or 10 min prior to 0.1 μM Aβ42): reduce α7nAChR-FLNA association
- TLR4/FLNA ratio versus Aβ42 alone (in words) (TLR4/FLNA): statistically different from Aβ42 alone
- MOR agonist activity, [35S]GTPγS binding, FLNA-binding compound as agonist at 0.1 μM (mu opiate receptor (MOR)): 252.0%
- MOR agonist activity, [35S]GTPγS binding, 1 μM + BFNA (mu opiate receptor (MOR)): 61.4%
- MOR agonist activity, [35S]GTPγS binding, FLNA-binding compound as agonist at 1 μM (mu opiate receptor (MOR)): 305.1%

Compound: hLeptin: unrelated human proteins human leptin and human chorionic gonadotropin (hLeptin and hCG); Human recombinant leptin
- Normalized OD, Average ([2]; 5 μg protein per well instead of lymphocyte lysate): 0.02
- % Cross reactivity ([2]; 5 μg protein per well, relative to 5 μg AD#63 lysate): 4.3%

Compound: Cc1ccc(S(=O)(=O)N2CCOC23CCN(CC2CCC2)CC3)cc1 [Compound 9]
- inhibition at 0.0001 µM [1]: 22.5%
- inhibition at 0.001 µM [1]: 24.8%
- inhibition at 0.01 µM [1]: 27.7%
- inhibition at 0.1 µM [1]: 35.3%
- inhibition at 1 µM [1]: 49.6%
- MOR agonist activity ([35S]GTPγS binding to Gαo), preliminary study (mu opiate receptor (MOR); 0.1 μM compound as agonist): 156.6%
- MOR agonist activity ([35S]GTPγS binding to Gαo), preliminary study (mu opiate receptor (MOR); 1 μM + βNFA): 56.6%
- MOR agonist activity ([35S]GTPγS binding to Gαo), preliminary study (mu opiate receptor (MOR); 1 μM compound as agonist): 197.2%
